Measured values published in patent publication US20250145637A1, “SULFONAMIDE DERIVATIVE, PREPARATION METHOD THEREFOR AND MEDICAL USE THEREOF” (Jiangsu Hengrui Pharmaceuticals Co. Ltd., priority 2021, published 2025).

System: H3K23 acetylation in U-2 OS cells
Assay: U2OS cell H3K23 acetylation IF assay (immunofluorescence)
Format: cell-based
Settings: Homo sapiens; for IC50: 24 h incubation, read-out: H3K23 ac/IC50; for Emax: inhibition of H3K23 acetylation, 24 h, read-out: Maximum inhibition rate/Imax %
Procedure: Test Example 3: U2OS Cell H3K23 Acetylation IF Assay (Immunofluorescence)
I. Reagents and Instruments
• 1. U-2 OS (ATCC HTB-96) • 2. Recombinant anti-histone H3 (acetyl K23) antibody (Abcam, ab177275) • 3. Goat anti-rabbit IgG (H+L), Superclonal™ recombinant secondary antibody, Alexa Fluor 488 (Thermofisher, A27034) • 4. Hoechst 33342 (Sigma-Aldrich, B2261-25MG) • 5. Assay plate, 96-well, black with clear bottom (Corning, 3603) • 6. Bovine serum albumin (BSA) (Sangon Biotech, A500023-0100) • 7. Methanol (GENERAL-REAGENT, G75851D) • 8. Tween-20 (Sangon, A100777-0500) • 9. Triton X-100 (Solarbio, T8200) • 10. PBS (Shanghai BasalMedia Technologies Co., Ltd., B320KJ) • 11. 20×PBS buffer (Sangon Biotech, B548117-0500) • 12. McCoy's 5A medium (Gibco, 16600082) • 13. 0.25% trypsin-EDTA (1×) (Gibco, 25200-072) • 14. Pen strep (Gibco, 15140-122) • 15. DPBS (1×) (Gibco, 14190-144) • 16. FBS (Gibco, 10091148) • 17. Automatic cell counter (Countstar, IC1000) • 18. Thermostatic incubator (Thermo, 1160) • 19. ImageXpress® Micro Confocal (Molecular Device)
a. Blocking buffer: PBS (Shanghai BasalMedia)+BSA (final concentration of 1%)+Triton X-100 (final concentration of 0.5%).
b. Wash buffer: PBS (20×PBS was diluted to 1×PBS)+Tween-20 (final concentration of 0.1%).
c. Primary antibody solution: Recombinant anti-histone H3 (acetyl K23) antibody was diluted in blocking buffer at a ratio of 1:1000.
d. Secondary antibody solutions: Goat anti-rabbit IgG (H+L), Superclonal™ recombinant secondary antibody, Alexa Fluor 488 was diluted in blocking buffer at a ratio of 1:1000, and Hoechst 33342 was diluted in blocking buffer at a ratio of 1:5000.
e. Compounds: initial concentration of 100 μM, 3-fold dilution, 9 gradient concentrations. All compound concentrations were diluted 500-fold with McCoy's 5A medium for later use.
2. Experimental Procedure
2.1. Cell Treatment (Day One)
a. The state of U-2 OS cells was observed under a microscope to make sure that the cell confluence was about 90%.
b. The cell supernatant was discarded. The cells were rinsed with DPBS once, and the DPBS was removed. The cells were digested with a proper amount of trypsin and left to stand at room temperature or 37° C. for 5 min.
c. The digestion was stopped with an equal volume of medium containing 10% FBS, and the cell suspension was collected and centrifuged at 300 g for 3 min. The cells were suspended in a proper amount of fresh medium.
d. The resulting cell suspension was collected and cell counting was performed.
e. The cell suspension was diluted and plated at 9000 cells/50 μL/well.
f. The wells on the periphery were blocked with 100 μL of PBS.
g. The cell culture plates were incubated overnight in a 37° C., 5% carbon dioxide incubator.
2.2. Compound Addition (Day Two)
a. 50 μL of diluted compound was added to the cell supernatant (50 μL/well) in each cell plate.
b. After the addition, the cell plates were incubated in a 37° C., 5% carbon dioxide incubator for 24 h.
2.3. Immunofluorescence Staining and Measurement (Day Three to Day Four)
a. After the 24-hour incubation, the cell plates were removed from the incubator. The medium was discarded, and plates were fixed with pre-cooled methanol at room temperature for 10 min.
b. The fixation buffer was discarded, and the plates were quickly washed with wash buffer 3 times and then slowly washed 3 times (5 min/wash).
c. The wash buffer was discarded, and blocking buffer was added. The plates were incubated at room temperature for 60 min.
d. The blocking buffer was discarded, and the prepared primary antibody solution was added. The plates were incubated overnight at 4° C.
e. The primary antibody solution was discarded, and the prepared secondary antibody solution was added. The plates were incubated at room temperature for 60 min.
f. The secondary antibody solution was discarded, and the plates were quickly washed with wash buffer 3 times and then slowly washed 5 times (5 min/wash).
g. The plates were tested on ImageXpress® Micro Confocal.
h. […]

| Compound | IC50 [nM] | Emax [%] |
| --- | --- | --- |
| COc1ccccc1S(=O)(=O)Nc1noc2cc(Cn3cccn3)c3c(c12)OCC3 [Compound 20, N-(4-((1H-pyrazol-1-yl)methyl)-2,3-dihydrobenzofuro[7,6-d]isoxazol-8-yl)-2-methoxybenzenesulfonamide] | 4.6 | 99.4 |
| CCOc1cc(C)ccc1S(=O)(=O)Nc1noc2cc(Cn3cccn3)c3c(c12)OCCC3 [Compound 7, N-(5-((1H-pyrazol-1-yl)methyl)-3,4-dihydro-2H-chromeno[8,7-d]isoxazol-9-yl)-2-ethoxy-4-methylbenzenesulfonamide] | 1.4 | 97.4 |
| COc1cccc(OC)c1S(=O)(=O)Nc1noc2cc(Cn3cccn3)c3c(c12)OC(F)(F)O3 [Compound 5, N-(4-((1H-pyrazol-1-yl)methyl)-2,2-difluoro-[1,3]dioxolo[4′,5′:5,6]benzo[1,2-d]isoxazol-8-yl)-2,6-dimethoxybenzenesulfonamide] | 0.6 | 104 |
| COc1ccc(F)cc1S(=O)(=O)Nc1noc2cc(Cn3cccn3)c3c(c12)OCCC3 [Compound 9, N-(5-((1H-pyrazol-1-yl)methyl)-3,4-dihydro-2H-chromeno[8,7-d]isoxazol-9-yl)-5-fluoro-2-methoxybenzenesulfonamide] | 0.75 | 99.5 |
| COc1cccc(OC)c1S(=O)(=O)Nc1noc2cc(Cn3cccn3)c3c(c12)OCCC3 [Compound 2, N-(5-((1H-pyrazol-1-yl)methyl)-3,4-dihydro-2H-chromeno[8,7-d]isoxazol-9-yl)-2,6-dimethoxybenzenesulfonamide] | 0.4 | 98.5 |

Further molecules by falling IC50, results first:

| IC50 [nM] | Compound | Emax [%] |
| --- | --- | --- |
| 2.8 | Cc1ccc(S(=O)(=O)Nc2noc3cc(Cn4cccn4)c4c(c23)OCCC4)c(OCC(F)(F)F)c1 [Compound 8, N-(5-((1H-pyrazol-1-yl)methyl)-3,4-dihydro-2H-chromeno[8,7-d]isoxazol-9-yl)-4-methyl-2-(2,2,2-trifluoroethoxy)benzenesulfonamide] | 99.4 |
| 1.2 | COc1cccc(OC(F)(F)F)c1S(=O)(=O)Nc1noc2cc(Cn3cccn3)c3c(c12)OCCC3 [Compound 10, N-(5-((1H-pyrazol-1-yl)methyl)-3,4-dihydro-2H-chromeno[8,7-d]isoxazol-9-yl)-2-methoxy-6-(trifluoromethoxy)benzenesulfonamide] | 106 |
| 1.1 | COc1cccc(OC)c1S(=O)(=O)Nc1noc2cc(Cn3cccn3)c3c(c12)OCC3 [Compound 1, N-(4-((1H-pyrazol-1-yl)methyl)-2,3-dihydrobenzofuro[7,6-d]isoxazol-8-yl)-2,6-dimethoxybenzenesulfonamide] | 102 |
| 0.9 | COc1ccccc1S(=O)(=O)Nc1noc2cc(Cn3cccn3)c3c(c12)OCCC3 [Compound 3, N-(5-((1H-pyrazol-1-yl)methyl)-3,4-dihydro-2H-chromeno[8,7-d]isoxazol-9-yl)-2-methoxybenzenesulfonamide] | 106 |
